This is an account of results in the supplement of paper PMC10307832.

Common to all, as to assay: relative viability (nuclei count vs DMSO), 5 days (fraction); higher = more cells survive
Compound in the experiment “Selumetinib + Tozasertib”: Cn1cnc2c(F)c(Nc3ccc(Br)cc3Cl)c(C(=O)NOCCO)cc21 [Selumetinib] + Cc1cc(Nc2cc(N3CCN(C)CC3)nc(Sc3ccc(NC(=O)C4CC4)cc3)n2)n[nH]1 [Tozasertib] (partner 0.1 µM)
In short, it runs like this:
(§1)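 Relative viability is defined as nuclei in treated wells over nuclei in vehicle wells. Duplicate plates were run and medians reported. Lung cancer cell lines in 1536-well plates were dosed by pin tool one day after seeding, with one drug or with a fixed anchor-drug dose plus five library-drug doses (not always all listed) in √10 steps, and nuclei were counted after 5 days.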

Compound in the experiment “Selumetinib + Olaparib”: Cn1cnc2c(F)c(Nc3ccc(Br)cc3Cl)c(C(=O)NOCCO)cc21 [Selumetinib] + O=C(c1cc(Cc2n[nH]c(=O)c3ccccc23)ccc1F)N1CCN(C(=O)C2CC2)CC1 [Olaparib] (partner 8 µM)
In short, it runs like this:
as §1

Compound in the experiment “Venetoclax + Pictilisib”: CC1(C)CCC(CN2CCN(c3ccc(C(=O)NS(=O)(=O)c4ccc(NCC5CCOCC5)c([N+](=O)[O-])c4)c(Oc4cnc5[nH]ccc5c4)c3)CC2)=C(c2ccc(Cl)cc2)C1 [Venetoclax] + CS(=O)(=O)N1CCN(Cc2cc3nc(-c4cccc5[nH]ncc45)nc(N4CCOCC4)c3s2)CC1 [Pictilisib] (partner 1 µM)
In short, it runs like this: as §1

Compound in the experiment “Venetoclax + Foretinib”: CC1(C)CCC(CN2CCN(c3ccc(C(=O)NS(=O)(=O)c4ccc(NCC5CCOCC5)c([N+](=O)[O-])c4)c(Oc4cnc5[nH]ccc5c4)c3)CC2)=C(c2ccc(Cl)cc2)C1 [Venetoclax] + COc1cc2c(Oc3ccc(NC(=O)C4(C(=O)Nc5ccc(F)cc5)CC4)cc3F)ccnc2cc1OCCCN1CCOCC1 [Foretinib] (partner 0.25 µM)
In short, it runs like this: as §1

For the cell line HCC-78, the relative viability stood at 0.703 with Selumetinib + Tozasertib (first compound 0.02 µM); 0.44 with Selumetinib + Tozasertib (first compound 0.06325 µM); 0.436 in the experiment with Selumetinib + Tozasertib (first compound 0.2 µM); 0.408 with Selumetinib + Tozasertib (first compound 0.6325 µM); 0.904 with Selumetinib + Olaparib (first compound 0.02 µM); 0.738 in the experiment with Selumetinib + Olaparib (first compound 0.06325 µM). Besides, the relative viability worked out at 0.723 with Selumetinib + Olaparib (first compound 0.2 µM); 0.789 with Selumetinib + Olaparib (first compound 0.6325 µM); 0.179 in the experiment with Venetoclax + Pictilisib (first compound 0.01 µM); 0.244 with Venetoclax + Pictilisib (first compound 0.03162 µM); 0.187 with Venetoclax + Pictilisib (first compound 0.1 µM); 0.206 with Venetoclax + Pictilisib (first compound 0.3162 µM). The relative viability with Venetoclax + Pictilisib (first compound 1 µM) turned out to be 0.238; in the experiment with Venetoclax + Foretinib (first compound 0.01 µM), 0.518; with Venetoclax + Foretinib (first compound 0.03162 µM) it was 0.54; in the experiment with Venetoclax + Foretinib (first compound 0.1 µM) it was 0.525; with Venetoclax + Foretinib (first compound 0.3162 µM), 0.484; with Venetoclax + Foretinib (first compound 1 µM), 0.576.
Turning to COR-L23, the relative viability is 0.211 with Selumetinib + Tozasertib (first compound 0.02 µM); 0.187 in the experiment with Selumetinib + Tozasertib (first compound 0.06325 µM); 0.171 with Selumetinib + Tozasertib (first compound 0.2 µM); 0.163 with Selumetinib + Tozasertib (first compound 0.6325 µM); 0.404 with Selumetinib + Olaparib (first compound 0.02 µM); 0.385 with Selumetinib + Olaparib (first compound 0.06325 µM). For the same cell line, the relative viability came out at 0.414 with Selumetinib + Olaparib (first compound 0.2 µM); 0.446 with Selumetinib + Olaparib (first compound 0.6325 µM); 0.676 with Venetoclax + Pictilisib (first compound 0.01 µM); 0.82 with Venetoclax + Pictilisib (first compound 0.03162 µM); 0.732 with Venetoclax + Pictilisib (first compound 0.1 µM); 0.825 with Venetoclax + Pictilisib (first compound 0.3162 µM). Besides, the relative viability came to 0.676 with Venetoclax + Pictilisib (first compound 1 µM); 0.884 in the experiment with Venetoclax + Foretinib (first compound 0.01 µM); 1.03 in the experiment with Venetoclax + Foretinib (first compound 0.03162 µM); 1.04 in the experiment with Venetoclax + Foretinib (first compound 0.1 µM); 0.866 with Venetoclax + Foretinib (first compound 0.3162 µM); 0.883 with Venetoclax + Foretinib (first compound 1 µM).
In the case of NCI-H1563, the relative viability in the experiment with Venetoclax + Pictilisib (first compound 0.01 µM) amounted to 0.881; with Venetoclax + Pictilisib (first compound 0.03162 µM) it was 0.653; with Venetoclax + Pictilisib (first compound 0.1 µM), 0.648; with Venetoclax + Pictilisib (first compound 0.3162 µM) it was 0.642; in the experiment with Venetoclax + Pictilisib (first compound 1 µM), 0.698; with Venetoclax + Foretinib (first compound 0.01 µM), 0.922. Also, the relative viability with Venetoclax + Foretinib (first compound 0.03162 µM) turned out to be 0.968; with Venetoclax + Foretinib (first compound 0.1 µM), 0.961; in the experiment with Venetoclax + Foretinib (first compound 0.3162 µM) it was 1.05; with Venetoclax + Foretinib (first compound 1 µM), 0.94.
Take NCI-H1792: the relative viability was 0.256 in the experiment with Selumetinib + Olaparib (first compound 0.02 µM); 0.353 with Selumetinib + Olaparib (first compound 0.06325 µM); 0.439 with Selumetinib + Olaparib (first compound 0.2 µM); 0.235 with Selumetinib + Olaparib (first compound 0.6325 µM); 0.228 with Venetoclax + Pictilisib (first compound 0.01 µM); 0.306 with Venetoclax + Pictilisib (first compound 0.03162 µM). For the same cell line, the figures for the relative viability with Venetoclax + Pictilisib (first compound 0.1 µM), with Venetoclax + Pictilisib (first compound 0.3162 µM) and in the experiment with Venetoclax + Pictilisib (first compound 1 µM) were 0.161, 0.262 and 0.278, respectively.
Consider IA-LM, for which the relative viability with Selumetinib + Olaparib (first compound 0.02 µM) is 1.09; with Selumetinib + Olaparib (first compound 0.06325 µM), 0.531; in the experiment with Selumetinib + Olaparib (first compound 0.2 µM), 0.587; in the experiment with Selumetinib + Olaparib (first compound 0.6325 µM), 0.482; in the experiment with Venetoclax + Pictilisib (first compound 0.01 µM), 0.354; with Venetoclax + Pictilisib (first compound 0.03162 µM) it was 0.322. Further, the relative viability with Venetoclax + Pictilisib (first compound 0.1 µM) came out at 0.275; with Venetoclax + Pictilisib (first compound 0.3162 µM), 0.317; in the experiment with Venetoclax + Pictilisib (first compound 1 µM), 0.337; with Venetoclax + Foretinib (first compound 0.01 µM), 1.02; with Venetoclax + Foretinib (first compound 0.03162 µM), 1.17; in the experiment with Venetoclax + Foretinib (first compound 0.1 µM), 1.13. The relative viability worked out at 1.14 with Venetoclax + Foretinib (first compound 0.3162 µM) and 0.977 with Venetoclax + Foretinib (first compound 1 µM).
As for NCI-H1648, the relative viability with Selumetinib + Tozasertib (first compound 0.02 µM) amounted to 0.54; with Selumetinib + Tozasertib (first compound 0.06325 µM), 0.488; with Selumetinib + Tozasertib (first compound 0.2 µM), 0.487; in the experiment with Selumetinib + Tozasertib (first compound 0.6325 µM), 0.456; with Selumetinib + Olaparib (first compound 0.06325 µM), 0.914; with Selumetinib + Olaparib (first compound 0.2 µM) it was 0.742. In the experiment with Selumetinib + Olaparib (first compound 0.6325 µM), the relative viability was 0.493.
Take NCI-H1703: the relative viability worked out at 0.521 in the experiment with Selumetinib + Olaparib (first compound 0.02 µM); 0.411 with Selumetinib + Olaparib (first compound 0.06325 µM); 0.39 in the experiment with Selumetinib + Olaparib (first compound 0.2 µM); 0.605 with Selumetinib + Olaparib (first compound 0.6325 µM); 0.22 with Venetoclax + Pictilisib (first compound 0.01 µM); 0.266 in the experiment with Venetoclax + Pictilisib (first compound 0.03162 µM). Further, the relative viability with Venetoclax + Pictilisib (first compound 0.1 µM) was determined as 0.206; with Venetoclax + Pictilisib (first compound 0.3162 µM) it was 0.229; with Venetoclax + Pictilisib (first compound 1 µM), 0.236; with Venetoclax + Foretinib (first compound 0.01 µM), 0.345; with Venetoclax + Foretinib (first compound 0.1 µM) it was 0.397; with Venetoclax + Foretinib (first compound 0.3162 µM), 0.328. The relative viability in the experiment with Venetoclax + Foretinib (first compound 1 µM) was found to be 0.367.
In the case of A549, the relative viability in the experiment with Selumetinib + Olaparib (first compound 0.02 µM) is 0.284; in the experiment with Selumetinib + Olaparib (first compound 0.06325 µM), 0.295; with Selumetinib + Olaparib (first compound 0.2 µM) it was 0.325; with Selumetinib + Olaparib (first compound 0.6325 µM), 0.265; with Venetoclax + Pictilisib (first compound 0.01 µM), 0.48; with Venetoclax + Pictilisib (first compound 0.03162 µM) it was 0.542. The relative viability with Venetoclax + Pictilisib (first compound 0.1 µM) was 0.564; in the experiment with Venetoclax + Pictilisib (first compound 0.3162 µM), 0.493; in the experiment with Venetoclax + Pictilisib (first compound 1 µM), 0.482; in the experiment with Venetoclax + Foretinib (first compound 0.01 µM) it was 0.896; with Venetoclax + Foretinib (first compound 0.03162 µM), 0.871; with Venetoclax + Foretinib (first compound 0.1 µM), 0.989. Moreover, the relative viability in the experiment with Venetoclax + Foretinib (first compound 0.3162 µM) was 0.912; with Venetoclax + Foretinib (first compound 1 µM) it was 0.883.
Turning to NCI-H522, the relative viability with Selumetinib + Tozasertib (first compound 0.02 µM) came out at 0.567; with Selumetinib + Tozasertib (first compound 0.06325 µM) it was 0.515; in the experiment with Selumetinib + Tozasertib (first compound 0.2 µM), 0.537; in the experiment with Selumetinib + Tozasertib (first compound 0.6325 µM) it was 0.505; with Selumetinib + Olaparib (first compound 0.02 µM) it was 0.676; in the experiment with Selumetinib + Olaparib (first compound 0.06325 µM), 0.74. Also, the relative viability came to 0.542 with Selumetinib + Olaparib (first compound 0.2 µM) and 0.581 with Selumetinib + Olaparib (first compound 0.6325 µM).
Consider NCI-H1623, for which the relative viability in the experiment with Selumetinib + Tozasertib (first compound 0.02 µM) was 0.343; with Selumetinib + Tozasertib (first compound 0.06325 µM), 0.342; with Selumetinib + Tozasertib (first compound 0.2 µM), 0.351; with Selumetinib + Tozasertib (first compound 0.6325 µM), 0.361; in the experiment with Venetoclax + Foretinib (first compound 0.01 µM) it was 0.897; in the experiment with Venetoclax + Foretinib (first compound 0.03162 µM) it was 0.906. Moreover, the relative viability was determined as 0.893 in the experiment with Venetoclax + Foretinib (first compound 0.1 µM), 0.836 with Venetoclax + Foretinib (first compound 0.3162 µM) and 0.858 in the experiment with Venetoclax + Foretinib (first compound 1 µM).
For the cell line SW 900, the relative viability with Selumetinib + Tozasertib (first compound 0.02 µM) came to 0.609; with Selumetinib + Tozasertib (first compound 0.06325 µM), 0.517; with Selumetinib + Tozasertib (first compound 0.2 µM), 0.564; in the experiment with Selumetinib + Tozasertib (first compound 0.6325 µM) it was 0.478; in the experiment with Selumetinib + Olaparib (first compound 0.02 µM), 0.96; with Selumetinib + Olaparib (first compound 0.06325 µM), 0.798. Besides, the relative viability in the experiment with Selumetinib + Olaparib (first compound 0.2 µM) worked out at 0.788; in the experiment with Selumetinib + Olaparib (first compound 0.6325 µM), 0.843; with Venetoclax + Foretinib (first compound 0.01 µM) it was 0.745; in the experiment with Venetoclax + Foretinib (first compound 0.03162 µM), 1.05; in the experiment with Venetoclax + Foretinib (first compound 0.1 µM), 0.823; in the experiment with Venetoclax + Foretinib (first compound 0.3162 µM) it was 0.916. Moreover, the relative viability in the experiment with Venetoclax + Foretinib (first compound 1 µM) came out at 1.16.
On to EBC-1, for which the relative viability with Selumetinib + Olaparib (first compound 0.02 µM) was 0.717; with Selumetinib + Olaparib (first compound 0.06325 µM), 0.66; with Selumetinib + Olaparib (first compound 0.2 µM), 0.599; with Selumetinib + Olaparib (first compound 0.6325 µM) it was 0.443; with Venetoclax + Pictilisib (first compound 0.01 µM), 0.436; in the experiment with Venetoclax + Pictilisib (first compound 0.03162 µM) it was 0.59. Besides, the relative viability with Venetoclax + Pictilisib (first compound 0.1 µM) worked out at 0.348; in the experiment with Venetoclax + Pictilisib (first compound 0.3162 µM), 0.339; with Venetoclax + Pictilisib (first compound 1 µM), 0.406; with Venetoclax + Foretinib (first compound 0.01 µM), 0.115; with Venetoclax + Foretinib (first compound 0.03162 µM) it was 0.0897; with Venetoclax + Foretinib (first compound 0.1 µM) it was 0.09. Besides, the values for the relative viability with Venetoclax + Foretinib (first compound 0.3162 µM) and with Venetoclax + Foretinib (first compound 1 µM) were 0.0924 and 0.0981, respectively.
